The results in this text go back to the SangsterLogP compilation.

Broadly, the logP is the decadic logarithm of the partition coefficient of the neutral form, usually between octanol and water. Higher therefore signals higher lipophilicity.

In turn, `Clc1ccc(-c2ccc(Cl)c(Cl)c2)c(Cl)c1` came in with a logP of 5.98.
Compound `Clc1ccccc1-c1c(Cl)c(Cl)cc(Cl)c1Cl` returned a logP of 6.06. This logP and that of the compound before are within 0.2 log units of each other.
As for `Clc1ccc(-c2c(Cl)cc(Cl)cc2Cl)c(Cl)c1`, the figure is 6.23; as for `Clc1ccc(-c2ccccc2Cl)cc1Cl`, 5.71.
The same measure for `Clc1cc(Cl)cc(-c2ccccc2Cl)c1`: 5.71; for `Clc1ccc(Cl)c(-c2c(Cl)c(Cl)c(Cl)c(Cl)c2Cl)c1Cl`: 7.21.
The same measure for `Clc1cc(Cl)c(Cl)c(-c2c(Cl)c(Cl)c(Cl)c(Cl)c2Cl)c1Cl`: 7.77; for `Clc1ccccc1-c1cc(Cl)c(Cl)c(Cl)c1`: 5.98; for `Clc1ccc(-c2ccc(Cl)c(Cl)c2)cc1`: 5.78.
Regarding `Clc1cccc(-c2ccccc2)c1Cl`, the logP stood at 4.99.
As for `Clc1ccc(Cl)c(-c2ccccc2)c1Cl`, the figure is 5.44; as for `Clc1cc(Cl)c(-c2c(Cl)c(Cl)cc(Cl)c2Cl)c(Cl)c1`, 6.78.
The same measure for `Clc1cc(Cl)cc(-c2cc(Cl)cc(Cl)c2)c1`: 6.6; for `Clc1ccc(-c2cc(Cl)c(Cl)cc2Cl)c(Cl)c1`: 6.41.
The same measure for `Clc1cc(Cl)c(-c2ccccc2Cl)c(Cl)c1`: 5.75; for `Clc1ccc(-c2cc(Cl)c(Cl)cc2Cl)cc1`: 6.1.
Take `Clc1cccc(-c2ccc(Cl)cc2Cl)c1`: the logP was 5.54.
`Clc1cccc(Cl)c1-c1c(Cl)cccc1Cl` had a logP of 5.24.
The compound `Clc1ccc(-c2ccccc2)cc1` registered a logP of 4.63.
As for `Clc1cccc(-c2c(Cl)cc(Cl)cc2Cl)c1`, the figure is 6.03; as for `Clc1ccc(-c2ccccc2)c(Cl)c1Cl`, 5.68; as for `Clc1cc(Cl)c(-c2c(Cl)c(Cl)c(Cl)c(Cl)c2Cl)cc1Cl`, 7.49.
`Clc1cc(-c2c(Cl)cc(Cl)c(Cl)c2Cl)c(Cl)c(Cl)c1Cl` gave a logP of 7.43.
The same measure for `Clc1ccc(Cl)c(-c2ccccc2)c1`: 5.1.
`Clc1ccc(-c2cccc(Cl)c2)cc1`: the logP is 5.15.
As for `Clc1ccc(-c2c(Cl)cccc2Cl)cc1Cl`, the figure is 5.76; as for `Clc1cc(-c2c(Cl)ccc(Cl)c2Cl)cc(Cl)c1Cl`, 6.63.
As for `Clc1ccc(Cl)c(-c2ccccc2Cl)c1`, the figure is 5.34; as for `Clc1cc(Cl)c(-c2cc(Cl)c(Cl)c(Cl)c2Cl)c(Cl)c1`, 6.92; as for `Clc1cc(Cl)cc(-c2c(Cl)c(Cl)c(Cl)c(Cl)c2Cl)c1`, 7.21.
As for `Clc1cc(Cl)cc(-c2c(Cl)ccc(Cl)c2Cl)c1`, the figure is 6.45; as for `Clc1cc(Cl)c(Cl)c(-c2c(Cl)cc(Cl)c(Cl)c2Cl)c1`, 6.92.
`Clc1ccc(Cl)c(-c2cc(Cl)cc(Cl)c2Cl)c1` yielded a logP of 6.32.
The same measure for `Clc1cc(Cl)c(-c2c(Cl)cc(Cl)c(Cl)c2Cl)cc1Cl`: 7.05.
As for `Clc1ccc(-c2ccccc2Cl)cc1`, the figure is 5.09; as for `Clc1ccc(-c2c(Cl)cccc2Cl)c(Cl)c1Cl`, 5.6; as for `Clc1ccc(Cl)c(-c2c(Cl)c(Cl)cc(Cl)c2Cl)c1Cl`, 6.41.
As for `Clc1cc(-c2c(Cl)c(Cl)c(Cl)c(Cl)c2Cl)c(Cl)c(Cl)c1Cl`, the figure is 7.94; as for `Clc1cccc(-c2cccc(Cl)c2)c1`, 5.27; as for `Clc1cc(Cl)c(Cl)c(-c2c(Cl)c(Cl)c(Cl)c(Cl)c2Cl)c1`, 7.43.
Regarding `Clc1cc(Cl)c(-c2ccc(Cl)c(Cl)c2Cl)cc1Cl`, the logP came to 6.72.
As for `Clc1ccc(-c2cc(Cl)cc(Cl)c2Cl)c(Cl)c1`, the figure is 6.32.
Compound `Clc1cc(-c2c(Cl)c(Cl)cc(Cl)c2Cl)cc(Cl)c1Cl` yielded a logP of 7.21.
The same measure for `Clc1ccc(Cl)c(-c2c(Cl)cccc2Cl)c1`: 5.55.
As for `Clc1cccc(-c2cc(Cl)c(Cl)c(Cl)c2Cl)c1Cl`, the figure is 6.76.
In turn, `Clc1ccccc1-c1cc(Cl)c(Cl)c(Cl)c1Cl` displayed a logP of 6.39.
In turn, `Clc1ccc(-c2c(Cl)c(Cl)cc(Cl)c2Cl)cc1` returned a logP of 6.39.
`Clc1cccc(-c2c(Cl)c(Cl)cc(Cl)c2Cl)c1` showed a logP of 6.41.
Compound `Clc1ccc(-c2c(Cl)cc(Cl)cc2Cl)cc1` registered a logP of 6.03.
As for `Clc1cc(Cl)c(-c2c(Cl)cc(Cl)c(Cl)c2Cl)c(Cl)c1Cl`, the figure is 7.21; as for `Clc1ccc(-c2c(Cl)ccc(Cl)c2Cl)cc1`, 5.76.
As for `Clc1cc(Cl)cc(-c2ccccc2)c1`, the figure is 5.41; as for `Clc1cccc(-c2cc(Cl)cc(Cl)c2)c1`, 5.81; as for `Clc1ccc(-c2c(Cl)c(Cl)cc(Cl)c2Cl)c(Cl)c1Cl`, 6.73.
`Clc1cc(Cl)c(-c2cccc(Cl)c2Cl)c(Cl)c1` showed a logP of 6.04.
As for `Clc1ccc(Cl)c(-c2c(Cl)cc(Cl)c(Cl)c2Cl)c1`, the figure is 6.45.
As for `Clc1ccc(-c2ccccc2Cl)c(Cl)c1`, the figure is 5.39.
The same measure for `Clc1ccc(-c2cccc(Cl)c2Cl)c(Cl)c1`: 5.72.
The compound `Clc1ccc(Cl)c(-c2cc(Cl)c(Cl)c(Cl)c2Cl)c1` came in with a logP of 6.75.
The same measure for `Clc1ccc(-c2cccc(Cl)c2Cl)cc1Cl`: 5.85; for `Clc1cc(Cl)c(Cl)c(-c2cc(Cl)c(Cl)c(Cl)c2Cl)c1`: 7.21.
`Clc1cccc(-c2cc(Cl)c(Cl)cc2Cl)c1` displayed a logP of 6.32.
As to `Clc1cc(Cl)c(-c2cc(Cl)ccc2Cl)c(Cl)c1`, the logP was 6.11.
As for `Clc1ccc(-c2cc(Cl)ccc2Cl)c(Cl)c1`, the figure is 5.87.
As for `Clc1ccccc1-c1c(Cl)ccc(Cl)c1Cl`, the figure is 4.84.
As for `Clc1cc(Cl)c(-c2ccc(Cl)c(Cl)c2)c(Cl)c1`, the figure is 6.4.
Turning to `Clc1ccc(-c2c(Cl)cc(Cl)c(Cl)c2Cl)cc1Cl`, the logP was 6.78.
The same measure for `Clc1ccc(-c2c(Cl)cccc2Cl)c(Cl)c1`: 5.51; for `Clc1ccc(-c2c(Cl)cc(Cl)c(Cl)c2Cl)c(Cl)c1Cl`: 6.99; for `Clc1ccc(-c2ccccc2)c(Cl)c1`: 5.16.
As for `Clc1ccc(-c2c(Cl)c(Cl)c(Cl)c(Cl)c2Cl)c(Cl)c1Cl`, the figure is 7.35; as for `Clc1ccc(Cl)c(-c2cc(Cl)c(Cl)cc2Cl)c1`, 6.3; as for `Clc1ccc(Cl)c(-c2ccc(Cl)c(Cl)c2Cl)c1`, 6.23.
The same measure for `Clc1cccc(-c2cc(Cl)ccc2Cl)c1`: 5.65; for `Clc1ccccc1-c1ccc(Cl)c(Cl)c1Cl`: 5.79; for `Clc1cc(-c2c(Cl)ccc(Cl)c2Cl)c(Cl)c(Cl)c1Cl`: 6.85.
The compound `Clc1ccc(Cl)c(-c2c(Cl)c(Cl)c(Cl)c(Cl)c2Cl)c1` yielded a logP of 6.99.
The same measure for `Clc1ccc(-c2c(Cl)cccc2Cl)cc1`: 5.24; for `Clc1cc(-c2c(Cl)c(Cl)cc(Cl)c2Cl)c(Cl)c(Cl)c1Cl`: 7.35.
As for `Clc1cc(-c2c(Cl)cc(Cl)c(Cl)c2Cl)cc(Cl)c1Cl`, the figure is 7.21.
The same measure for `Clc1cc(Cl)c(-c2c(Cl)c(Cl)cc(Cl)c2Cl)cc1Cl`: 6.92.
As to `Clc1ccc(-c2c(Cl)c(Cl)c(Cl)c(Cl)c2Cl)c(Cl)c1`, the log partition coefficient (logP) was 7.13.
As for `Clc1ccc(-c2c(Cl)c(Cl)c(Cl)c(Cl)c2Cl)cc1Cl`, the logP is 7.08.
The same measure for `Clc1cccc(-c2cc(Cl)c(Cl)c(Cl)c2Cl)c1`: 6.92; for `Clc1cccc(-c2cccc(Cl)c2Cl)c1Cl`: 5.67; for `Clc1cc(Cl)cc(-c2c(Cl)cc(Cl)cc2Cl)c1`: 6.43.
As to `Clc1cc(Cl)c(-c2c(Cl)c(Cl)c(Cl)c(Cl)c2Cl)c(Cl)c1`, the logP was 7.48.
As for `Clc1ccc(-c2cc(Cl)cc(Cl)c2Cl)cc1`, the figure is 6.1.
`Clc1cccc(-c2c(Cl)cccc2Cl)c1Cl` gave a logP of 4.84.
Turning to `Clc1ccccc1-c1ccccc1`, the logP is 4.42.
`Clc1ccc(-c2ccc(Cl)cc2)cc1` yielded a logP of 5.23.
The same measure for `Clc1cc(Cl)c(Cl)c(-c2c(Cl)c(Cl)cc(Cl)c2Cl)c1`: 6.85; for `Clc1ccc(-c2c(Cl)cc(Cl)c(Cl)c2Cl)cc1`: 6.44.
`Clc1ccccc1-c1c(Cl)cccc1Cl` yielded a logP of 5.04.
The same measure for `Clc1ccc(-c2ccc(Cl)c(Cl)c2Cl)c(Cl)c1`: 6.18; for `Clc1cc(Cl)c(Cl)c(-c2c(Cl)c(Cl)cc(Cl)c2Cl)c1Cl`: 7.16.
With `Clc1cc(-c2cc(Cl)c(Cl)c(Cl)c2Cl)c(Cl)c(Cl)c1Cl`, the logP came out at 7.62.
`Clc1cc(-c2c(Cl)c(Cl)c(Cl)c(Cl)c2Cl)cc(Cl)c1Cl` yielded a logP of 7.62.
For `Clc1ccc(-c2ccc(Cl)cc2Cl)c(Cl)c1`, the logP was 5.94.
For the compound `Clc1ccc(-c2c(Cl)c(Cl)cc(Cl)c2Cl)cc1Cl`, the logP is 6.78.
The same measure for `Clc1cc(Cl)c(-c2ccccc2Cl)cc1Cl`: 5.69; for `Clc1cc(Cl)c(-c2ccc(Cl)c(Cl)c2Cl)c(Cl)c1`: 6.58.
